The values below come from BindingDB's records for doi:10.1021/cb500956g (University of North Carolina At Chapel Hill, 2015).

Each structure is given as a SMILES string.

Common to all, as to conditions: pH 8
Test [1] concerns the target PHD finger protein 23 (Homo sapiens, UniProt Q9BUL5). Kind of test: AlphaScreen Assay. Here is the method: (§1) In brief, compound plates (1 μL at 10 mM highest concentration; 3-fold, 10-point dilutions in DMSO) were diluted in 1X assay buffer (20 mM TRIS pH 8.0, 25 mM NaCl, 2 mM DTT and 0.05% Tween-20) to 1 mM using a Multimek robotic pipettor (Nanoscreen), and 1 μL was spotted into the wells of 384-well low-volume Proxiplates (PerkinElmer). To these plates was added 9 μL of protein−peptide mix in a 1X assay buffer by Multidrop (Thermo) to bring the final compound concentration to 100 μM, and this was incubated for 30 min at RT. Next, 2 μL of a 1:1 mixture of streptavidin-conjugate donor and nickel-chelate acceptor beads (45μg/mL in 1X assay buffer) were added, and the plates were allowed to incubate for an additional 30 min in the dark at RT. After incubation, the plates were read on an EnVision multilabel reader equipped with an HTS AlphaScreen laser (PerkinElmer).
Background: Bead proximity is the source of the signal in Alpha formats.

Test [2] deals with PHD finger protein 19 (Homo sapiens, UniProt Q5T6S3). Kind of test: AlphaScreen Assay. Here is the method:
as §1

The target of test [3] is Lysine-specific demethylase 5A (Homo sapiens, UniProt P29375). Nature of the test: AlphaScreen Assay. How it is done: as §1
Lysine-specific demethylase 5A, sequence (P29375 whole entry): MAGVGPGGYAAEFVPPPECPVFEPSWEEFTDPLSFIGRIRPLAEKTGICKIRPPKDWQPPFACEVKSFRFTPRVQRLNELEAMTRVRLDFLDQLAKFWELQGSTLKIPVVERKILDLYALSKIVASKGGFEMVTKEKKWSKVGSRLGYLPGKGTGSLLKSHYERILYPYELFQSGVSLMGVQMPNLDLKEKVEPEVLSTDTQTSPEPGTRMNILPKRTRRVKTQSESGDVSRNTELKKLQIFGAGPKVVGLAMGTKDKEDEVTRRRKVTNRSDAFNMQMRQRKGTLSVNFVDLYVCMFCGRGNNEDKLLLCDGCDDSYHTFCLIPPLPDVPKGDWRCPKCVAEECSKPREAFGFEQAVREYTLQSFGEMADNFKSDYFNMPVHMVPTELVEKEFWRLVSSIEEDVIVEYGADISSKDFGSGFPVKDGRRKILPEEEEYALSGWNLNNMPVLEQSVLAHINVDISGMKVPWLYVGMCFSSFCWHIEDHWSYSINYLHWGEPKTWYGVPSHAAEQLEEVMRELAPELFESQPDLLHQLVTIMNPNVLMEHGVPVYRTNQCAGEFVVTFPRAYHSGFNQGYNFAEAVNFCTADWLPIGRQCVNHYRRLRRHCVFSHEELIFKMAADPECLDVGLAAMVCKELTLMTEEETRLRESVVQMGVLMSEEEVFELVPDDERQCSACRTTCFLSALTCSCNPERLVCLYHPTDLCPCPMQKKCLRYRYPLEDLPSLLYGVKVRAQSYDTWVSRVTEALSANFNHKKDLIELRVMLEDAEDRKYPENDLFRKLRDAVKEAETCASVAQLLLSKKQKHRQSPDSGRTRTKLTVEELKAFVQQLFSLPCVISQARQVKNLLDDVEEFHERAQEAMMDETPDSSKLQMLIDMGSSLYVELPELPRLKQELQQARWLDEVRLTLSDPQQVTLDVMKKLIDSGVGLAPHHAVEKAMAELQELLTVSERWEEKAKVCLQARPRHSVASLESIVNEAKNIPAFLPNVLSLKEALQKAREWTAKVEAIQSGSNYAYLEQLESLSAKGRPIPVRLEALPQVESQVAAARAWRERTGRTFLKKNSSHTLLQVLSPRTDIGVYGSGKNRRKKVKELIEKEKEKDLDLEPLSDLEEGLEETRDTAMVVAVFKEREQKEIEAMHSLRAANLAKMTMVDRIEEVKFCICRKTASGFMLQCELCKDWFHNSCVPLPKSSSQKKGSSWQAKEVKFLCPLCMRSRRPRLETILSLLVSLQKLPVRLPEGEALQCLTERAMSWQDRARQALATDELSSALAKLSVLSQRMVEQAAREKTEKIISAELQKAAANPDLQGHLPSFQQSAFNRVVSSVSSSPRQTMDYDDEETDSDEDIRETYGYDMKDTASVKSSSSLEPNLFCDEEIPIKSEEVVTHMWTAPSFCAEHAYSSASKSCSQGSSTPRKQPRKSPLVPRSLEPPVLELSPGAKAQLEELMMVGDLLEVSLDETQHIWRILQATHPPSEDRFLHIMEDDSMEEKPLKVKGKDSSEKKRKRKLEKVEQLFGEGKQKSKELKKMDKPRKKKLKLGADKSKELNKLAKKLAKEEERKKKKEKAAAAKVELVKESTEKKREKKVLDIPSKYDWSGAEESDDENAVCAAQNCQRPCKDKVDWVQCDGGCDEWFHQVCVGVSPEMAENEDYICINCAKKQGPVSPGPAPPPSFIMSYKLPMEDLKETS
In test [4] the target is T1, TP53-binding protein 1 (Homo sapiens, UniProt Q12888). Nature of the test: AlphaScreen Assay. How it is done: as §1
T1 sequence (Q12888 whole entry, the tested form may be a part): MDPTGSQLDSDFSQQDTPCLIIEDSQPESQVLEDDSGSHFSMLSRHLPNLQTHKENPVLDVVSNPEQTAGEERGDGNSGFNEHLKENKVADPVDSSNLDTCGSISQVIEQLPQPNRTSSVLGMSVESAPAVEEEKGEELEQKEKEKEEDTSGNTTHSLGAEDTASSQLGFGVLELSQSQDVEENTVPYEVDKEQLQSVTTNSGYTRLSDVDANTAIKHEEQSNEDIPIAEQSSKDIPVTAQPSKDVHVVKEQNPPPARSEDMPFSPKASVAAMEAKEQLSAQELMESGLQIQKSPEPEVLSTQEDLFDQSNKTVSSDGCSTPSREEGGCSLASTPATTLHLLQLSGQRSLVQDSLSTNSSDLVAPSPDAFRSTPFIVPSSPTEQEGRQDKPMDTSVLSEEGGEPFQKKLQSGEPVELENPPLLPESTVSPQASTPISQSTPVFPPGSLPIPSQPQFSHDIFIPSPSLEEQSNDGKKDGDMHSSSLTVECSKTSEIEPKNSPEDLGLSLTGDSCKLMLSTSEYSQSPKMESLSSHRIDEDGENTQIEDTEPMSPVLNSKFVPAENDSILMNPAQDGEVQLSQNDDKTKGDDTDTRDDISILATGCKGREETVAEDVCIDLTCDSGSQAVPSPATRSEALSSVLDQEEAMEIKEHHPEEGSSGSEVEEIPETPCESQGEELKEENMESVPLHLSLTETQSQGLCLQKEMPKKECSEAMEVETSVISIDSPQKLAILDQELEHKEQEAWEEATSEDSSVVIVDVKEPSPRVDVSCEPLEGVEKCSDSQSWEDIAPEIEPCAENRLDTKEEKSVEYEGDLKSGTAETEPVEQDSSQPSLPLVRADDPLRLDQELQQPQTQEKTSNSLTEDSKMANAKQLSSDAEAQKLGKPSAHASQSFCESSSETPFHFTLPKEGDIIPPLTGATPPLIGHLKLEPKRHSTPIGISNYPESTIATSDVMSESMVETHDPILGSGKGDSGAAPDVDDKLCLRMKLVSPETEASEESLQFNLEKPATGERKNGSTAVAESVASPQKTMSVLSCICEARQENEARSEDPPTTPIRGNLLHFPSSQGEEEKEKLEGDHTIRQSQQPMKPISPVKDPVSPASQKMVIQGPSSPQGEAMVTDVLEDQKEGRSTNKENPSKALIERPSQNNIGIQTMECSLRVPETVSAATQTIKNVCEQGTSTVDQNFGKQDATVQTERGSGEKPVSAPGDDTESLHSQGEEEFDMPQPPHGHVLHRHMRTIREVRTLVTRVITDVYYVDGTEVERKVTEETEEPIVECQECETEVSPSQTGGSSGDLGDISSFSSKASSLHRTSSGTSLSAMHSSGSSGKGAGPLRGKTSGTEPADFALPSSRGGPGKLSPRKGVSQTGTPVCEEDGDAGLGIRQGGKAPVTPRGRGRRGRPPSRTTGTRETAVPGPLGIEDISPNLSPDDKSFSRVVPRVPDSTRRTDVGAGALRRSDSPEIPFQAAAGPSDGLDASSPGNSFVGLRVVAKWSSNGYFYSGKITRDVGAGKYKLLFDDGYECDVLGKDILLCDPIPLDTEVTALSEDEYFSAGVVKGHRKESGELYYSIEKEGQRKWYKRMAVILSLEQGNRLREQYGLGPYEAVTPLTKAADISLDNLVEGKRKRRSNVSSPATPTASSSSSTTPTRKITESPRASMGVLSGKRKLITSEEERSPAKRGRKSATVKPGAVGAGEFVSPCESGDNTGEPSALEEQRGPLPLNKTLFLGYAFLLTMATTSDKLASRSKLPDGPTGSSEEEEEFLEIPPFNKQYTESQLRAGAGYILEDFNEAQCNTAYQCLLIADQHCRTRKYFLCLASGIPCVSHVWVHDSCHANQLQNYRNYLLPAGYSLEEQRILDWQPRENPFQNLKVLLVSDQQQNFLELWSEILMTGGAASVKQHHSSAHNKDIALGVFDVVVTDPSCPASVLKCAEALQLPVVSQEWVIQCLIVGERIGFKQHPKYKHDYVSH
In test [5] the target is MBT domain-containing protein 1 (Homo sapiens, UniProt Q05BQ5). Kind of test: AlphaScreen Assay. Here is the method:
as §1

In test [6] the target is T2, PHD finger protein 1 (Homo sapiens, UniProt O43189).
T2 sequence (O43189 whole entry): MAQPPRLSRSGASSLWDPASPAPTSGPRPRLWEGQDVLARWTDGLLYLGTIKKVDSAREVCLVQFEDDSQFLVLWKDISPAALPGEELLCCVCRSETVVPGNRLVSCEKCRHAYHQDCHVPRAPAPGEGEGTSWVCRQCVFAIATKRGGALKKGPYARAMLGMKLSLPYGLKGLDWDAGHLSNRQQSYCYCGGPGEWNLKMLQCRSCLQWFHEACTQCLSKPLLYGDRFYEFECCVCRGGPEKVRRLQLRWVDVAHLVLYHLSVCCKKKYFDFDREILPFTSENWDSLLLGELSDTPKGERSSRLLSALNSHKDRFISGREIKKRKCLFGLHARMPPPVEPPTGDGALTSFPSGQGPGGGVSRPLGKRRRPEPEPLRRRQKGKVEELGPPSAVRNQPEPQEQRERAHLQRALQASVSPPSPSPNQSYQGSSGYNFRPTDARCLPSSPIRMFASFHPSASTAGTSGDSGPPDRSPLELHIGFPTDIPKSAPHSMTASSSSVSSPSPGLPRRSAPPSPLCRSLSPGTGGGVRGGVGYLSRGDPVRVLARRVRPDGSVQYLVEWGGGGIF
Kind of test: AlphaScreen Assay. How it is done: as §1

The target of test [7] is T3, E3 ubiquitin-protein ligase UHRF1 (Homo sapiens, UniProt Q96T88).
T3 sequence (Q96T88 whole entry): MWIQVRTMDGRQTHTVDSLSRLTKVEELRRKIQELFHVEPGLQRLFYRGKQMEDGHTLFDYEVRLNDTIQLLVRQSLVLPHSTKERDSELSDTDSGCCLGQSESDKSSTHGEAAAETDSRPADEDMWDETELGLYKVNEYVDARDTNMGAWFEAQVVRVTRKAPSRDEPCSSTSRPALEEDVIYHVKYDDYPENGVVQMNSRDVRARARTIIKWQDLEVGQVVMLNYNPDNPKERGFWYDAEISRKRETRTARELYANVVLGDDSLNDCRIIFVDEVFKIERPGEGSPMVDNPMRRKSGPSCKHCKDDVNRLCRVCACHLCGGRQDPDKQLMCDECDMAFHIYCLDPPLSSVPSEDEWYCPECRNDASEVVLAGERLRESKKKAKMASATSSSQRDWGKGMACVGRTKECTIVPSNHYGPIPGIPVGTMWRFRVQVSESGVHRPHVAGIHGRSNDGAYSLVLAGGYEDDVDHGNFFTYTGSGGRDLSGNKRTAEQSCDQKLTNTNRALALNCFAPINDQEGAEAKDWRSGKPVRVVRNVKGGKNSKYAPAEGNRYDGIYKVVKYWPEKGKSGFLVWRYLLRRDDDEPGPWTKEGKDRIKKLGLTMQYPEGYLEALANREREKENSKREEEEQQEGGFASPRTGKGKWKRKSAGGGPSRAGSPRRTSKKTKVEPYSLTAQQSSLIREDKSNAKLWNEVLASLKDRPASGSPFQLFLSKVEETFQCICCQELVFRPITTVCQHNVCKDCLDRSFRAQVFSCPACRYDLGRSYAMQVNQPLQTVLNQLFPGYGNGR
Nature of the test: AlphaScreen Assay. Here is the method:
as §1

The target in test [8] is T4, Isoform 4 of Lethal(3)malignant brain tumor-like protein 1 (4) (Homo sapiens, UniProt Q9Y468).
T4 sequence (Q9Y468 whole entry): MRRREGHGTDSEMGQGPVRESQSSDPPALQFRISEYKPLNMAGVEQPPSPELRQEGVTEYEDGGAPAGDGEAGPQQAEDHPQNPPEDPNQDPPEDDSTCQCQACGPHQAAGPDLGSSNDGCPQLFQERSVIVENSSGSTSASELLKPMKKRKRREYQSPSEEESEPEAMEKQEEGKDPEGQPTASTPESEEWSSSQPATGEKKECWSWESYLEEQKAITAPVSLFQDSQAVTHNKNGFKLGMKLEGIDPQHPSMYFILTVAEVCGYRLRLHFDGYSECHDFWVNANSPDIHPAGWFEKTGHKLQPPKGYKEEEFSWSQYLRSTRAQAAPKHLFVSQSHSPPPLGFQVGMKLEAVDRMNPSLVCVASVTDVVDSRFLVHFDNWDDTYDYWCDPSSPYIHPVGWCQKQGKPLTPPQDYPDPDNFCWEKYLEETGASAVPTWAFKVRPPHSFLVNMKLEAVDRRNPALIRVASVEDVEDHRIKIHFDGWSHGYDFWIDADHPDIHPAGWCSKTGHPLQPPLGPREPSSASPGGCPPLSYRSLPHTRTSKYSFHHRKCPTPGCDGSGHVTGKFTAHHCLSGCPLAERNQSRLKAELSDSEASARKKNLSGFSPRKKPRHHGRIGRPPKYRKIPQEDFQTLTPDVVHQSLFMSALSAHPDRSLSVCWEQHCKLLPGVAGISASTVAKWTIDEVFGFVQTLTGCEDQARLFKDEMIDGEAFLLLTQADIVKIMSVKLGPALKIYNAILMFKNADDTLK
Nature of the test: AlphaScreen Assay. How it is done: as §1

Test [9] deals with T5, Chromobox protein homolog 7 (Homo sapiens, UniProt O95931).
T5 sequence (O95931 whole entry): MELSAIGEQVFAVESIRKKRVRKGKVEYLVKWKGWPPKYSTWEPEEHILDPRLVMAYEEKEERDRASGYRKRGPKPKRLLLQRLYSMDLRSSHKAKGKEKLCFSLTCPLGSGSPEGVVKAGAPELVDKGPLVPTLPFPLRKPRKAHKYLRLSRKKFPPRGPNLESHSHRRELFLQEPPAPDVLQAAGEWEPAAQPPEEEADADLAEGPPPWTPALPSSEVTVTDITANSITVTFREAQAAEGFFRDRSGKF
Kind of test: AlphaScreen Assay. Here is the method:
as §1

Test [10] has as its target T1, TP53-binding protein 1. Nature of the test: ITC. How it is done:
All ITC measurements were recorded at 25 °C with an AutoITC200 microcalorimeter (MicroCal Inc.). All protein and compound stock samples were in the target buffer (25 mM Tris-HCl, pH 8, 150 mM NaCl, and 2 mM β-mercaptoethanol), and then diluted in the same buffer to achieve the desired concentrations: 90 200 μM protein and 1 2 mM compound depending on the expected dissociation constant. The concentration of protein stock solutions were established using the Edelhoch method, whereas 10 mM compound stock solutions were prepared gravimetrically based on molecular weight. A typical experiment included a single 0.2 μL compound injection into a 200 μL cell filled with protein, followed by 25 subsequent 1.5 μL injections of compound. Injections were performed with a spacing of 180 seconds and a reference power of 8 μcal/sec.
On the technique in general: ITC needs no label: the signal is the heat of the interaction.

MBT domain-containing protein 1, sequence (Q05BQ5 whole entry, the tested form may be a part): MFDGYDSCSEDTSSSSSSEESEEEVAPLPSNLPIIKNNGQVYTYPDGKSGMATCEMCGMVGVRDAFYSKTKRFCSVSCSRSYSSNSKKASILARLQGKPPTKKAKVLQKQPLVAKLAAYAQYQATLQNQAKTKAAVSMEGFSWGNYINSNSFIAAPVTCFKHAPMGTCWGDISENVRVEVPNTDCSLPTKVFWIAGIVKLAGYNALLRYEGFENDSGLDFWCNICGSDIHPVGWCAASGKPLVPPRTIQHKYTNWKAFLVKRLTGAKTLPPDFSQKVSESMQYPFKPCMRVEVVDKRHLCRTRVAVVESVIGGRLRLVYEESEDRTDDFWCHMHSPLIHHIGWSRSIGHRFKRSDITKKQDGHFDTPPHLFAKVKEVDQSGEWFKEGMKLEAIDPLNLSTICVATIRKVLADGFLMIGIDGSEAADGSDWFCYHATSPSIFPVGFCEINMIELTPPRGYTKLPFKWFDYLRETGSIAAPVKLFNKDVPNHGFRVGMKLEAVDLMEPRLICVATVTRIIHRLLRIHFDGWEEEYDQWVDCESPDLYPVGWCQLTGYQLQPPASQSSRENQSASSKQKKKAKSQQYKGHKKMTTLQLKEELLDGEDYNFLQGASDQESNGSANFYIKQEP
PHD finger protein 23, sequence (Q9BUL5 whole entry): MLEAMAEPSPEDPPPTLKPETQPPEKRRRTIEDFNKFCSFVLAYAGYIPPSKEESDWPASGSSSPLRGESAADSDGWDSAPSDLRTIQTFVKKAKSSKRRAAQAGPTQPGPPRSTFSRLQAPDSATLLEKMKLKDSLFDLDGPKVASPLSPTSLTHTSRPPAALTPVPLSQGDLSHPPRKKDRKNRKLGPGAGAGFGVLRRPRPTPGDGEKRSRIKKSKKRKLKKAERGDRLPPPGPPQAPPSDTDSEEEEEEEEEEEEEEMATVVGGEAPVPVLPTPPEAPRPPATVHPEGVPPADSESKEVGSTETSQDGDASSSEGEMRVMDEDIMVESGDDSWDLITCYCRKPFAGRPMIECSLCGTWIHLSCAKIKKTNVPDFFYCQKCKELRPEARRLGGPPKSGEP

Usually IC50 stands for the midpoint of a concentration-inhibition curve. As to `CC(C)(C)OCCCNC(=O)c1cccc(Br)c1` [3-Bromo-N-(3-(tert-butoxy)propyl)benzamide (5)], the IC50 in test [1], in test [2], in test [3], in test [4], in test [5] and in [6] was above 100 µM each time. For the same compound, the IC50 in [7], in test [8] and in [9] was above 100 µM in each case.

For `CN(CCCNC(=O)c1cccc(Br)c1)C(C)(C)C` [3-Bromo-N-(3-(tert-butyl(methyl)amino)propyl)benzamide (UNC2892, 4)], the IC50 in test [1], in test [2], in test [3], in [4], in test [5] and in test [6] was above 500 µM throughout. For the same compound, the IC50 in test [7], in test [8] and in test [9] was above 500 µM throughout.

What is called Kd is the free concentration of one partner at which half of the binding sites on the other are occupied at equilibrium, for simple one-to-one binding. Consider `CC(C)(C)NCCCNC(=O)c1cccc(Br)c1` [3-Bromo-N-(3-(tert-butylamino)propyl)benzamide (UNC2170, 1)], for which binding in [10] was characterised by a dissociation constant (Kd) of 22 µM. Further, the IC50 in test [1] is above 500 µM; in test [2], above 500 µM; in test [3], above 500 µM; in [4] it was 29 µM; in test [5], above 500 µM; in test [6] it was above 500 µM. The IC50 in [7], in test [8] and in [9] was above 500 µM in each case.
